The target in series [1] is cGMP-specific 3',5'-cyclic phosphodiesterase (Homo sapiens, UniProt O76074). In words: DRUGMATRIX: Phosphodiesterase PDE5 enzyme inhibition (substrate: [3H]cGMP + cGMP). The settings on record: platelet; Not Active = under 50% inhibition at 10 µM. The format is tissue-based, Platelet.
Series [2] in a line: DRUGMATRIX: GABAA, Muscimol, Central radioligand binding (ligand: [3H] Muscimol). Format: cell membranes, Rattus norvegicus, Wistar, Brain, Membrane. The settings on record: Not Active = under 50% inhibition at 10 µM.
The target in the next series is T1, Progesterone receptor (Bos taurus, UniProt Q690N0).
T1 sequence (Q690N0 whole entry): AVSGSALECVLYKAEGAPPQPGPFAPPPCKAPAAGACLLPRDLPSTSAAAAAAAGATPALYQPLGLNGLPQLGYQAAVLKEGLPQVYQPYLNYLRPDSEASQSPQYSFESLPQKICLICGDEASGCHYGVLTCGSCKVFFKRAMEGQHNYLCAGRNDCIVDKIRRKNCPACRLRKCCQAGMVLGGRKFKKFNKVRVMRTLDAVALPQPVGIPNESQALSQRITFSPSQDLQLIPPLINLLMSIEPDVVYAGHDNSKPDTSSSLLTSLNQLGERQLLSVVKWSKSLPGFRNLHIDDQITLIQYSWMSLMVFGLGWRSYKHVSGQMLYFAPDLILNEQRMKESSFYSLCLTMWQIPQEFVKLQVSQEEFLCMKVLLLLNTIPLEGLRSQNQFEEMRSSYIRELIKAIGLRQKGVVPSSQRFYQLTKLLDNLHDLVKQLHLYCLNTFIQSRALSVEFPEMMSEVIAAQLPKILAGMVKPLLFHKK
In words: DRUGMATRIX: Progesterone radioligand binding (ligand: [3H] R-5020). The format is tissue-based, Uterus. The conditions noted are these: Not Active = under 50% inhibition at 10 µM.

Series [3] has as its target Platelet-activating factor receptor (Homo sapiens, UniProt P25105). Format: tissue-based. Further: in other assays of this panel Not Active means under 50% inhibition at 10 µM.
The target in a further series is Melanocortin receptor 5 (Homo sapiens, UniProt P33032). The format is cell membranes, HEK293, Membrane. Further: in other assays of this panel Not Active means under 50% inhibition at 10 µM.
Melanocortin receptor 5, sequence (P33032 whole entry): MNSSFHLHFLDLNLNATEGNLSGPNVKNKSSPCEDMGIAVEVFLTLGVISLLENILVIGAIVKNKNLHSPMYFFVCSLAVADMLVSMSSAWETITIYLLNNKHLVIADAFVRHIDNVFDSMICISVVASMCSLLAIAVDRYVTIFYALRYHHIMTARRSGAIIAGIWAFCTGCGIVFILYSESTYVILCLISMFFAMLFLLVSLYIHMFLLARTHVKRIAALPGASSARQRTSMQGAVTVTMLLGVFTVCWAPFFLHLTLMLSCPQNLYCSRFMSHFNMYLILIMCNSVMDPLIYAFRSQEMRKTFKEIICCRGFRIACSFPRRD
Series [4] addresses T2, Alpha-1A adrenergic receptor (Rattus norvegicus, UniProt P43140).
T2 sequence (P43140 whole entry): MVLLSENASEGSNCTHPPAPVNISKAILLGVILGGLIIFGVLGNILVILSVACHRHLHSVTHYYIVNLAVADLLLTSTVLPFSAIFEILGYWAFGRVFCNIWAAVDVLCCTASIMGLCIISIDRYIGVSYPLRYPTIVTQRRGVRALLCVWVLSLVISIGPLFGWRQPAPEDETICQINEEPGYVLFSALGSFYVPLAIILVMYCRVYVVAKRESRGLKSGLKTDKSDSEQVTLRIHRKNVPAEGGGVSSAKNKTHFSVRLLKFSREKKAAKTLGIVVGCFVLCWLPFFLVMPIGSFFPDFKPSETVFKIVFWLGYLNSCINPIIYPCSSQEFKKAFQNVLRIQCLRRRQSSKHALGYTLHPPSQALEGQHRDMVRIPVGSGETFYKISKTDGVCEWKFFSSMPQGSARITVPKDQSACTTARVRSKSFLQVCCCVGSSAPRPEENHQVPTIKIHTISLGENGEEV
The series can be described thus: DRUGMATRIX: Alpha-1A adrenergic receptor radioligand binding (ligand: prazosin). Format: cell membranes, Wistar, Submaxillary gland, Membrane. The conditions noted are these: Not Active = under 50% inhibition at 10 µM.

Series [5] concerns the target Voltage-gated inwardly rectifying potassium channel KCNH2 (Homo sapiens, UniProt Q12809). The settings on record: hek293. Further: in other assays of this panel Not Active means under 50% inhibition at 10 µM.
Series [6] in a line: DRUGMATRIX: Glutamate, NMDA, Agonism radioligand binding (ligand: [3H] CGP-39653). Format: cell membranes, Rattus norvegicus, Wistar, Cerebral cortex, Membrane. The conditions noted are these: Not Active = under 50% inhibition at 10 µM.

A word on the IC50: it is the concentration at which inhibition is half-maximal. As usually defined, the Ki is a dissociation constant, usually derived from enzyme kinetics or from competition with a known ligand.

Platelet-activating factor receptor, sequence (P25105 whole entry): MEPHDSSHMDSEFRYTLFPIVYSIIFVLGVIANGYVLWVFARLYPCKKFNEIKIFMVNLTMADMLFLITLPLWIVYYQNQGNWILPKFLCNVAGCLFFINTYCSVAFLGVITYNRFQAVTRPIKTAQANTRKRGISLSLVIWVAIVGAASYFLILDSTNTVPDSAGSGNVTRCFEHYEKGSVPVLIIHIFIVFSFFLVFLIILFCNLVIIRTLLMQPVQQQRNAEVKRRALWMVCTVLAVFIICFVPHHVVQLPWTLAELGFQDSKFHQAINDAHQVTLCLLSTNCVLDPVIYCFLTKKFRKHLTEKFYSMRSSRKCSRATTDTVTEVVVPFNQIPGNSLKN
Voltage-gated inwardly rectifying potassium channel KCNH2, sequence (Q12809 whole entry): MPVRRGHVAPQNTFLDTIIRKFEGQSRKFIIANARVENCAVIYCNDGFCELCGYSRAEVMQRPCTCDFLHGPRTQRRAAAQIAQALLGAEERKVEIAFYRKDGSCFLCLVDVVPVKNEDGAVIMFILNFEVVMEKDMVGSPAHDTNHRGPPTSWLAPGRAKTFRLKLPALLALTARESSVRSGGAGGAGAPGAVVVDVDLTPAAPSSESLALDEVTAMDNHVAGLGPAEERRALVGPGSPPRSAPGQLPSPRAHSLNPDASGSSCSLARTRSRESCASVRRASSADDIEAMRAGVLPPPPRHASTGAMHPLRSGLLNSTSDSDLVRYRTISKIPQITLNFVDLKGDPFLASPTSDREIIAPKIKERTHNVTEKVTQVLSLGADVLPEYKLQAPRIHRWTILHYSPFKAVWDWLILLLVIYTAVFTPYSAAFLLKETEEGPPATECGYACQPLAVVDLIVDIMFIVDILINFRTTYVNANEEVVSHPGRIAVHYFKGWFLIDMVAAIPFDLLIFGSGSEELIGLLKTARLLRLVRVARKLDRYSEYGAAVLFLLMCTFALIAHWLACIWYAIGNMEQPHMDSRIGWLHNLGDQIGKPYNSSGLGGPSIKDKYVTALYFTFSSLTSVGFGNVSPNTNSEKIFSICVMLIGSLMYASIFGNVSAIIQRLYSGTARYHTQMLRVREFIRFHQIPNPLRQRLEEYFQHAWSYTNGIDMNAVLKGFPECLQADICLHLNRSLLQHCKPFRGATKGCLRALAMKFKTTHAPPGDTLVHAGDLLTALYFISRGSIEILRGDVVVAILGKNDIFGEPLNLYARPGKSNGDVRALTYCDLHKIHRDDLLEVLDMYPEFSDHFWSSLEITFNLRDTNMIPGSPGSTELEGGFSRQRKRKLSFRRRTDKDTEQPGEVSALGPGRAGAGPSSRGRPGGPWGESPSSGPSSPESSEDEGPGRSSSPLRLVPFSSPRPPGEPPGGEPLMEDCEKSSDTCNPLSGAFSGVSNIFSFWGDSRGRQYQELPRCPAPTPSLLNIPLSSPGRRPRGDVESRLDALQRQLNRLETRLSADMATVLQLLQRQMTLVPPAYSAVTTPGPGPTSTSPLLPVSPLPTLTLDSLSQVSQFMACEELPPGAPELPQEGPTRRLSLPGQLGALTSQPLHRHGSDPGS

On to `O=C1CN(/N=C/c2ccc([N+](=O)[O-])o2)C(=O)N1` [NITROFURANTOIN], for which the IC50 entry (in series [1]; in series [2]; at Progesterone receptor; in series [3]; on Melanocortin receptor 5 (hek293); in series [4]) was “Not Active” in each case. Also, the IC50 entry in series [5] and in series [6] was “Not Active” throughout. The Ki result in series [2], in series [5] and in series [6] was “Not Active” in each case.
Consider `Cc1c(N)nc([C@H](CC(N)=O)NC[C@H](N)C(N)=O)nc1C(=O)N[C@H](C(=O)N[C@H](C)[C@@H](O)[C@H](C)C(=O)N[C@H](C(=O)NCCc1nc(-c2nc(C(=O)NCCC[S+](C)C)cs2)cs1)[C@@H](C)O)[C@@H](O[C@@H]1O[C@@H](CO)[C@@H](O)[C@H](O)[C@@H]1O[C@H]1O[C@H](CO)[C@@H](O)[C@H](OC(N)=O)[C@@H]1O)c1c[nH]cn1.[Br-]` [BLEOMYCIN A2], for which the IC50 result (in series [1]; in series [2]; on Progesterone receptor; in series [3]; on Melanocortin receptor 5 (hek293); in series [4]) was “Not Active” throughout. The IC50 entry in series [5] and in series [6] was “Not Active” each time. The Ki result in series [2], in series [5] and in series [6] was “Not Active” throughout.
Turning to `CC(C)Cc1ccc([C@H](C)C(=O)O)cc1` [DEXIBUPROFEN], the IC50 entry (in series [1]; in series [2]; on Progesterone receptor; in series [3]; at Melanocortin receptor 5 (hek293); in series [4]) was “Not Active” in each case. Further, the IC50 result in series [5] and in series [6] was “Not Active” each time. For the same molecule, the Ki result in series [2], in series [5] and in series [6] was “Not Active” in each case.
Regarding `C[C@H]1C[C@H]2[C@@H]3CCC4=CC(=O)C=C[C@]4(C)[C@@]3(F)[C@@H](O)C[C@]2(C)[C@@]1(O)C(=O)CO` [BETAMETHASONE], the IC50 result (in series [1]; in series [2]; on Progesterone receptor; in series [3]; on Melanocortin receptor 5 (hek293); in series [4]) was “Not Active” throughout. The 50% inhibitory concentration (IC50) entry in series [5] and in series [6] was “Not Active” each time. For the same molecule, the Ki entry in series [2], in series [5] and in series [6] was “Not Active” throughout.
As for `COC(=O)C[C@](O)(CCC(C)(C)O)C(=O)O[C@@H]1C(OC)=C[C@]23CCCN2CCc2cc4c(cc2[C@H]13)OCO4` [HARRINGTONINE], the IC50 entry (in series [1]; in series [2]; at Progesterone receptor; in series [3]; against Melanocortin receptor 5 (hek293); in series [4]) was “Not Active” throughout. Further, the IC50 entry in series [5] and in series [6] was “Not Active” each time. Further, the Ki result in series [2], in series [5] and in series [6] was “Not Active” throughout.
In the case of `CC(C)(c1ccc(O)cc1)c1ccc(O)cc1` [BISPHENOL A], the IC50 entry (in series [1]; in series [2]; on Progesterone receptor; in series [3]; on Melanocortin receptor 5 (hek293); in series [4]) was “Not Active” each time. For the same molecule, the IC50 entry in series [5] and in series [6] was “Not Active” each time. For the same molecule, the inhibitory constant (Ki) result in series [2], in series [5] and in series [6] was “Not Active” throughout.
Regarding `CN(CCOc1ccc(C[C@H](Nc2ccccc2C(=O)c2ccccc2)C(=O)O)cc1)c1ccccn1`, the IC50 result is “Not Active” in series [1]; “Not Active” in series [2]; 30.6 µM at Progesterone receptor (read-out: IC50); “Not Active” in series [3]; “Not Active” against Melanocortin receptor 5 (hek293); “Not Active” in series [4]. In addition, the IC50 entry in series [5] and in series [6] was “Not Active” each time. Also, the Ki result in series [2] was “Not Active”; on Progesterone receptor (read-out: Ki) it was 3.99 µM; in series [5], “Not Active”; in series [6], “Not Active”.
Consider `COc1cc(NC(C)CCCN)c2ncccc2c1` (stereo unspecified) [PRIMAQUINE], for which the IC50 result (in series [1]; in series [2]; on Progesterone receptor; in series [3]; at Melanocortin receptor 5 (hek293); in series [4]) was “Not Active” throughout. Also, the IC50 result in series [5] and in series [6] was “Not Active” throughout. The Ki entry in series [2], in series [5] and in series [6] was “Not Active” each time.
Turning to `c1ccc2sc(SSc3nc4ccccc4s3)nc2c1` [BENZOTHIAZYL DISULFIDE], the IC50 result in series [1] was “Not Active”; in series [2] it was “Not Active”; on Progesterone receptor, “Not Active”; in series [3], “Not Active”; on Melanocortin receptor 5 (read-out: IC50), 3.9 µM; in series [4], “Not Active”. Further, the IC50 entry in series [5] and in series [6] was “Not Active” in each case. Moreover, the Ki result is “Not Active” in series [2], 3.7 µM on Melanocortin receptor 5 (read-out: Ki), “Not Active” in series [5] and “Not Active” in series [6].
Consider `CC(C)(C#N)c1cc(Cn2cncn2)cc(C(C)(C)C#N)c1` [ANASTROZOLE], for which the IC50 entry (in series [1]; in series [2]; on Progesterone receptor; in series [3]; on Melanocortin receptor 5 (hek293); in series [4]) was “Not Active” each time. Besides, the IC50 entry in series [5] and in series [6] was “Not Active” throughout. Further, the Ki entry in series [2], in series [5] and in series [6] was “Not Active” each time.
Take `CC(=O)[C@]1(O)Cc2c(O)c3c(c(O)c2[C@@H](O[C@H]2C[C@H](N)[C@H](O)[C@H](C)O2)C1)C(=O)c1ccccc1C3=O` [IDARUBICIN]: the half-maximal inhibitory concentration (IC50) entry (in series [1]; in series [2]; on Progesterone receptor; in series [3]; against Melanocortin receptor 5 (hek293); in series [4]) was “Not Active” throughout. Moreover, the IC50 result in series [5] and in series [6] was “Not Active” in each case. Besides, the Ki entry in series [2], in series [5] and in series [6] was “Not Active” in each case.
For the molecule `O=C(O)c1ccccc1` [BENZOIC ACID], the IC50 result (in series [1]; in series [2]; at Progesterone receptor; in series [3]; against Melanocortin receptor 5 (hek293); in series [4]) was “Not Active” each time. The IC50 entry in series [5] and in series [6] was “Not Active” throughout. Moreover, the Ki result in series [2], in series [5] and in series [6] was “Not Active” throughout.
For `O=C(Nc1ccc(Cl)c(Cl)c1)c1cc(Cl)cc(Cl)c1O` [3,3',4',5-TETRACHLOROSALICYLANILIDE], the IC50 entry (in series [1]; in series [2]; on Progesterone receptor; in series [3]; on Melanocortin receptor 5 (hek293); in series [4]) was “Not Active” throughout. Also, the IC50 result in series [5] and in series [6] was “Not Active” in each case. The Ki result in series [2], in series [5] and in series [6] was “Not Active” in each case.
Consider `OC[C@H]1O[C@@H]2O[C@H]3[C@H](O)[C@@H](O)[C@@H](O[C@H]4[C@H](O)[C@@H](O)[C@@H](O[C@H]5[C@H](O)[C@@H](O)[C@@H](O[C@H]6[C@H](O)[C@@H](O)[C@@H](O[C@H]7[C@H](O)[C@@H](O)[C@@H](O[C@H]1[C@H](O)[C@H]2O)O[C@@H]7CO)O[C@@H]6CO)O[C@@H]5CO)O[C@@H]4CO)O[C@@H]3CO` [ALFADEX], for which the IC50 entry (in series [1]; in series [2]; on Progesterone receptor; in series [3]; against Melanocortin receptor 5 (hek293); in series [4]) was “Not Active” each time. For the same molecule, the IC50 result in series [5] and in series [6] was “Not Active” throughout. The Ki entry in series [2], in series [5] and in series [6] was “Not Active” each time.
